≈ marks a conversion by molar mass, not a printed value.
Tests used:
[1] = Solubility and pH of saturated solution; assay type: physicochemical; settings: water
[2] = Chemical / storage stability of tasimelteon and its suspensions; assay type: physicochemical; settings: formation of three degradation products
Method: Ascorbic acid preferentially undergoes oxidation, thereby preventing oxidation of tasimelteon, but also imparts a yellow color to the suspension on storage, especially when stored at 40° C./75% RH for >3 months, which is the accelerated storage condition for products stored at room temperature (6 months of satisfactory stability is necessary at 40° C./75% RH in order to justify long-term storage at room temperature/25° C./60% RH). Because of the color change from white/off-white to yellow after 3 months storage at 40° C./75% RH, it is necessary to store the suspension at 5° C., for which the accelerated storage condition is 25° C./60% RH and up to 6 months of satisfactory stability data at this storage condition are available (i.e., color change is from white/off-white to slightly yellow).
Short-term stability studies can be undertaken under storage conditions at (1) 5±3° C., (2) 25±2° C. (at 60±5% relative humidity), and 40±2° C. (at 75±5% relative humidity) for one to three months. Under such conditions, total impurities as determined by HPLC for pharmaceutically acceptable compositions are, for example, not more than 2.0 percent by weight or not more than 0.5 percent by weight with respect to known impurities, and not more than 0.2 percent by weight with respect to unspecified impurities.

[3] = test system: Smith-Magenis Syndrome (SMS); experiment: Study of efficacy of tasimelteon in disorders including SMS, once daily before bedtime; assay type: in vivo, pediatric patients
Method: (§1) One common symptom of SMS is a chronically disrupted sleep pattern, which is found at all ages. In a study to determine the efficacy of tasimelteon in the treatment of disorders, including SMS, oral (20 mg capsule or 4 mg/mL suspension) and intravenous (0.4 mg/mL) formulations were administered once per day before bedtime to pediatric patients 3-17 years old.
Treatment efficacy was assessed by improvements in nighttime sleep (i.e., reduced nighttime activity interrupting the sleep period, improved sleep efficiency, reduced variability in sleep onset, reduced variability in morning awakenings, and/or improved sleep quality), reduced daytime sleepiness, reduced behavioral problems (i.e., reduced aggressive behavior, reduced temper tantrums, reduced hyperactivity, and/or reduced attention deficits).

[4] = Apparent clearance in the pediatric study; assay type: in vivo, pediatric patients; settings: children with body mass greater than 28 kg
Method: as §1

[5] = known in the art, cited from earlier work

Row | SMILES | solubility [1] [mg/mL] | oxidative degradation [2] | consistently effective dose ([3]; patients with body mass greater than 28 kg) [mg] | consistently effective dose ([3]; patients with body mass of 28 kg or less) [mg/kg] | apparent clearance [4] | solubility in organic solvents ([5]; 95% ethanol, methanol, acetonitrile, ethyl acetate, isopropanol, polyethylene glycols (PEG-300 and PEG-400)) | effect of pH on aqueous solubility [5] | native pH of a saturated solution in water ([5]; saturated solution in water) | solubility in water ([5]; water)
1 | OC[C@@H](O)[C@@H](O)[C@H](O)[C@H](O)CO [mannitol] | ~200 (≈ 1100 mM) | – | – | – | – | – | – | – | –
2 | CCC(=O)NC[C@@H]1C[C@H]1c1cccc2c1CCO2 [tasimelteon, trans-N-[[2-(2,3-dihydrobenzofuran-4-yl)cycloprop-1-yl]methyl]propanamide] | ~1 (≈ 4.08 mM) | susceptible to oxidative degradation | 20 | 0.7 | constant and similar to that of adults | highly soluble | substantially unaffected by pH | 8.5 | poorly soluble
